In US8586568B2, “Methods and products for treatment of diseases” (Ampio Pharmaceuticals, Inc., priority 2005, dated 2013):
Where two headings read alike, the source gives them in different places.

Key:
[1] = tested on: Human umbilical vein endothelial cells 7016 (HUVEC); assay: Invasion chamber: fetal calf serum induced endothelial cell invasion through matrigel treated inserts (trilostane III); details: for Mean FU: 5% FCS in bottom chamber, 24 hours, background subtracted, n=3; for effect on endothelial cell invasion: high dose (50 μM), 5% FCS induced invasion
Experimental: 1. Trypsinized HUVEC cells from flasks grown in Cambrex EGM-2 media to 70-80% confluence were washed two times with 37° C. EGM-2 with 0.1% FCS.
2. Cell suspensions containing 30,000 cells and compounds in EGM-2 0.1% FCS were added to the upper chamber of inserts.
3. EGM-2 containing 5% FCS was added to the bottom chamber and then incubated for 24 hours at 37° C. and 5% CO2.
4. Non-invading cells were removed from the upper chamber with cotton swab and the inserts were washed two times with 37° C. HBSS.
5. Inserts were then placed in wells containing 10 μM Calcein AM in HBSS.
6. Following four hours at 37° C. and 5% CO2, fluorescence was measured at 485 nm excitation and 595 nm emission.
Results are presented as mean fluorescent units (FU) in triplicate (n=3) with background fluorescence subtracted. […] To determine background invasion, nil inserts were included in triplicate that had EGM-2 with 0.1% FCS added to the bottom chamber.

[2] = tested on: HUVEC cells; assay: Danazol BioCoat Matrigel Invasion Chamber; format: cell-based, Human; details: 5% FCS in bottom chamber, 24 hours
Experimental: BioCoat Matrigel Invasion Chambers were purchased from BD Biosciences (San Jose, Calif.). Inserts were rehydrated at 37° C. with 500 μl HBSS for 2 hours prior to use in humidified incubator. Trypsinized HUVEC cells were washed twice with warm EGM-2 containing 0.1% FCS and added to the upper chamber of the invasion insert at 100,000 cells in a total volume of 250 μl. Danazol and control compounds were added to the upper reservoir at final concentrations of 10 μM and 100 μM. 750 μl EGM-2 supplemented with 5% FCS was added to the bottom chamber to initiate invasion and the plates were incubated for 24 hours. Non-invasive cells were removed from the upper chamber with moistened cotton swabs and then the inserts were washed twice with HBSS. The inserts were then submerged in 10 μM calcein AM prepared in HBSS and incubated for 4 hours. Fluorescence was determined in a microplate reader at 485 nm excitation and 595 nm emission.
All data is presented as representative experiment done in triplicate. Differences between subsets were analyzed using student t-test in Microsoft Excel. P<0.05 was considered statistically significant.

[3] = tested on: HUVEC cells; assay: Trilostane III tube formation assay in extracellular matrix gel; format: cell-based, Human; details: 50 μM, 18 hours
Experimental: 1. […] EGM-2 with 0.1% FCS.
2. Cell suspensions containing 10,000 cells and compounds in both EGM-2 0.1% and 5% FCS were added per well then incubated for 18 hours at 37° C. and 5% CO2.
3. Following incubation, tube formations were photographed under microscope.
Passage 3 HUVEC 8750 cells were used for this experiment at 98% viability by trypan blue exclusion at time of seeding.

[4] = tested on: HUVEC cells; assay: Danazol Endothelial Cell Tube Formation Assay on matrigel plugs; format: cell-based, Human; details: 5% FCS, 18 hours
Experimental: To investigate the formation of capillary-like structures by HUVEC cells, the Angiogenesis System Endothelial Cell Tube Formation Assay was purchased from BD Biosciences (San Jose, Calif.) and used according to the manufacturers protocol. In brief, 100,000 HUVEC cells were seeded onto rehydrated matrigel plugs in 96 well tissue culture plates in the presence of 5% FCS to induce tube formation. […] After 18 hours the wells were photographed using a Kodak DCS Pro SLR/N digital camera (Rochester, N.Y.) mounted on an inverted microscope. Ethanol treated wells were included to determine if the vehicle had any effects on cell differentiation.

[5] = tested on: HUVEC cells; assay: Danazol effect on HUVEC cell proliferation (Celltiter 96 AQueous One); format: cell-based, Human; details: for OD: OD±standard deviation
Experimental: Primary HUVEC and EGM-2 growth medium were obtained from Cambrex (Walkersville, Md.). The cells were passaged in medium supplemented with 2% fetal calf serum (FCS) in tissue culture flasks at 37° C. and 5% CO2. Subculturing was performed using trypsin when 60-80% confluence was obtained as specified by the supplier.
Cryopreserved ampoules of passage 2 HUVEC cells were thawed and plated in 96 well tissue culture plates at 5,000 cells/cm^2. A 50 mM stock solution of danazol was prepared in ethanol and the FCS in the medium was increased to 5% to keep danazol in solution. The cells were treated with medium containing final concentrations of danazol ranging from 0.1 to 100 μM in triplicates. 24, 48, and 72 hour incubations were performed and cell proliferation was determined utilizing Celltiter 96 AQueous One Solution Cell Proliferation assay from Promega (Madison, Wis.). In short, medium was aspirated from each well and the cells were washed with 200 μl […] buffered saline (HBSS) from Cambrex warmed to 37° C. 100 μl diluted celltiter solution (15 μl stock+85 μl EGM-2 containing 0.1% FCS) were added to each well and incubated for an additional 4 hours. Optical density was determined by microplate reader using a 530 nm filter after blank subtraction and data presented as OD±standard deviation. The final concentration of ethanol in the wells was less then 0.2% and had no effect on cell proliferation or viability.
All data are presented as representative experiment done in triplicate. Differences between subsets were analyzed using student t-test in Microsoft Excel. P<0.05 was considered statistically significant.

[6] = tested on: HUVEC cells; assay: Trilostane III effect on HUVEC cell proliferation (Celltiter 96 Aqueous One); format: cell-based, Human; details: for mean OD: 5% FCS, blank subtracted; for OD 1: replicate 1; for OD 2: replicate 2; for OD 3: replicate 3; for inhibition at 100 µM: Homo sapiens, HUVEC, read-out: inhibition of cultures (cell proliferation)
Experimental: 2. Medium was aspirated and the cells were then washed two times with 37° C. HBSS.
4. Cells were again washed to times with warm HBSS and then Celltiter reagent in EGM-2 with 0.1% FCS was added.
5. After 4 hours in culture the OD of each well was determine at 470 nm.
6. Repeat steps 4 and 5 for each time point.
Results are presented as mean OD of samples performed in triplicate (n=3) with mean blank OD subtracted. HUVEC 8750 cells were used for this experiment with 98% viability by trypan blue exclusion at time of seeding. […] The raw data are shown in Table 2 below and depicted graphically in FIG. 2.

[7] = without added 5% FCS (nil wells, 0.1% FCS)
[8] = Homo sapiens, HUVEC, 24 h, read-out: percent inhibition of proliferation
[9] = Homo sapiens, HUVEC, 48 h, read-out: percent inhibition of proliferation
[10] = Homo sapiens, HUVEC, 72 h, read-out: percent inhibition of proliferation

2α-cyano-4α,5α-epoxyandrostan-17β-ol-3-one [trilostane]
Mean FU ([1]; 25 μM): 11212.3 FU | Mean FU ([1]; 50 μM): 9101.33 FU

O=c1cc(N2CCOCC2)oc2c(-c3ccccc3)cccc12 [LY294002]
Mean FU ([1]; 50 μM): 9454.33 FU | fluorescence of invaded cells ([2]; concentration not stated with the value): 5814±153 FU

O=c1cc(N2CCNCC2)oc2c(-c3ccccc3)cccc12 [LY303511]
Mean FU ([1]; 50 μM): 12795.3 FU | effect on endothelial cell invasion [1]: had no effect on invasion | tube formation [3, 7]: comparable tube formations to untreated cells

C#C[C@]1(O)CC[C@H]2[C@@H]3CCC4=Cc5oncc5C[C@]4(C)[C@H]3CC[C@@]21C [danazol, 17α-pregna-2,4-dien-20-yno[2,3-d]-isoxazol-17β-ol]
tube formation ([4]; 50 μM): isolated colonies of HUVEC located in the plug with very few, thin connections or vessel lumen spaces | tube formation ([4]; danazol 1-50 μM): fewer organized structures with thin and less defined interconnections than controls | effect on cell invasion ([2]; 10 μM): had no effect | effect on cell invasion ([2]; 100 μM): had no effect | OD ([5]; 0.1 μM, 72 hours): 0.798±0.037 | OD ([5]; 1 μM, 48 hours): 0.378±0.037 | OD ([5]; 1 μM, 72 hours): 0.484±0.022 | OD ([5]; 10 μM, 24 hours): 0.288±0.037 | OD ([5]; 10 μM, 48 hours): 0.241±0.012 | OD ([5]; 10 μM, 72 hours): 0.229±0.016 | OD ([5]; 100 μM, 24 hours): 0.162±0.017 | OD ([5]; 100 μM, 48 hours): 0.19±0.033 | OD ([5]; 100 μM, 72 hours): 0.156±0.018 | effect on cell proliferation ([5]; 100 μM, all time points): complete arrest of cell proliferation | concentration at which inhibition was significant ([5]; 48 hours): approximately 1 μM | inhibition at 10 µM [5, 8]: 30% | inhibition at 100 µM [5, 8]: 65% | inhibition at 1 µM [5, 9]: 40% | inhibition at 10 µM [5, 9]: 61% | inhibition at 100 µM [5, 9]: 70% | inhibition at 0.1 µM [5, 10]: 28% | inhibition at 1 µM [5, 10]: 57% | inhibition at 10 µM [5, 10]: 80% | inhibition at 100 µM [5, 10]: 86%

C[C@]12CCC3C(CC[C@@]45O[C@@H]4C4ON=CC4C[C@]35C)C1CC[C@@H]2O (stereo partly drawn) [trilostane III]
effect on endothelial cell invasion [1]: dropped the levels back to background | mean OD ([6]; 0.1 uM, 24 hour): 0.3873 | OD 1 ([6]; 0.1 uM, 24 hour): 0.362 | OD 2 ([6]; 0.1 uM, 24 hour): 0.368 | OD 3 ([6]; 0.1 uM, 24 hour): 0.432 | mean OD ([6]; 0.1 uM, 48 hour): 0.656 | OD 1 ([6]; 0.1 uM, 48 hour): 0.575 | OD 2 ([6]; 0.1 uM, 48 hour): 0.698 | OD 3 ([6]; 0.1 uM, 48 hour): 0.695 | mean OD ([6]; 0.1 uM, 72 hour): 0.9187 | OD 1 ([6]; 0.1 uM, 72 hour): 0.733 | OD 2 ([6]; 0.1 uM, 72 hour): 0.962 | OD 3 ([6]; 0.1 uM, 72 hour): 1.061 | mean OD ([6]; 1 uM, 24 hour): 0.311 | OD 1 ([6]; 1 uM, 24 hour): 0.284 | OD 2 ([6]; 1 uM, 24 hour): 0.328 | OD 3 ([6]; 1 uM, 24 hour): 0.321 | mean OD ([6]; 1 uM, 48 hour): 0.4347 | OD 1 ([6]; 1 uM, 48 hour): 0.358 | OD 2 ([6]; 1 uM, 48 hour): 0.489 | OD 3 ([6]; 1 uM, 48 hour): 0.457 | mean OD ([6]; 1 uM, 72 hour): 0.3877 | OD 1 ([6]; 1 uM, 72 hour): 0.387 | OD 2 ([6]; 1 uM, 72 hour): 0.437 | OD 3 ([6]; 1 uM, 72 hour): 0.339 | mean OD ([6]; 10 uM, 24 hour): 0.2467 | OD 1 ([6]; 10 uM, 24 hour): 0.18 | OD 2 ([6]; 10 uM, 24 hour): 0.267 | OD 3 ([6]; 10 uM, 24 hour): 0.293 | mean OD ([6]; 10 uM, 48 hour): 0.203 | OD 1 ([6]; 10 uM, 48 hour): 0.159 | OD 2 ([6]; 10 uM, 48 hour): 0.208 | OD 3 ([6]; 10 uM, 48 hour): 0.242 | mean OD ([6]; 10 uM, 72 hour): 0.072 | OD 1 ([6]; 10 uM, 72 hour): 0.031 | OD 2 ([6]; 10 uM, 72 hour): 0.095 | OD 3 ([6]; 10 uM, 72 hour): 0.09 | mean OD ([6]; 100 uM, 24 hour): 0.2787 | OD 1 ([6]; 100 uM, 24 hour): 0.235 | OD 2 ([6]; 100 uM, 24 hour): 0.334 | OD 3 ([6]; 100 uM, 24 hour): 0.267 | mean OD ([6]; 100 uM, 48 hour): 0.2147 | OD 1 ([6]; 100 uM, 48 hour): 0.17 | OD 2 ([6]; 100 uM, 48 hour): 0.23 | OD 3 ([6]; 100 uM, 48 hour): 0.244 | mean OD ([6]; 100 uM, 72 hour): 0.108 | OD 1 ([6]; 100 uM, 72 hour): 0.092 | OD 2 ([6]; 100 uM, 72 hour): 0.119 | OD 3 ([6]; 100 uM, 72 hour): 0.113 | lowest concentration with statistically relevant decrease in cell proliferation ([6]; 24 hours): 1 µM | inhibition at 100 µM ([6]; 24 hours): 33% | inhibition at 100 µM ([6]; 48 hours): 67% | inhibition at 100 µM ([6]; 72 hours): 90% | cell viability under inverted microscope ([6]; all wells, even highest doses after 72 hours in culture): Viable cells were visible in all wells | tube formation ([3]; in the presence of 5% fetal calf serum): greatly reduced tube formation | tube formation [3, 7]: decrease in branching, vacuole formation, and increase in satellite cells
